Measured values as given in patent US6203822A, “Gallium-containing compounds for the treatment of infections caused by intracellular pathogens and pathogens causing chronic pulmonary infection” (priority 1996, dated 2001).

Experiments:
[1] = system: Leishmania chagasi promastigotes; experiment: Inhibition of Leishmania chagasi promastigote growth; format: cell-based
Procedure: Visceral leishmaniasis, the most serious form of human disease cause by Leishmania species, is fatal if untreated. Currently available treatment regimes suffer from both suboptimal efficacy and considerable toxicity. […] Leishmania chagasi, the cause of visceral leishmaniasis requires iron for growth and can obtain that iron from human transferrin, lactoferrin and hemin. When incubated in an in vitro culture system (using the culture methods of Wilson et al. Infect. Immun. 62:3262-3269, 1994), L. chagasi promastigotes were inhibited by the presence of gallium nitrate in a concentration dependent manner with inhibition observed at about at least 500 μM and higher (see Example 14 and FIG. 9).
Amastigotes were isolated from the spleens of infected hamsters and allowed to convert to promastigotes by cultivation in a modified minimal essential medium (HOMEM) with 10% heat inactivated fetal calf serum and hemin (8 μM). Parasites were used within 21 days of isolation from an infected hamster. Promastigote cultures were seeded at 10^6 promastigotes per ml and used after 2 to 3 days in logarithmic phase or 5 to 7 days in stationary phase of growth. During growth studies with gallium nitrate, promastigotes were suspended in iron-containing HOMEM to allow for organism growth. […]

[2] = system: M. tuberculosis in human macrophages; experiment: Colony-forming unit assay to assess pathogen death; format: cell-based
Procedure: (§1) Example 4 and Example 5 detail exemplary methods used to determine whether the mycobacteria strains were killed by the addition of gallium nitrate. […] The bacteria were resuspended in 7H9 broth (BBL Microbiology Systems) or onto agar plates without gallium nitrate and incubated under conditions known to promote bacterial growth. In Example 4, the growth index for these cultures was assessed after 6 weeks to determine whether bacteria are inhibited or killed. […] In Example 5, M. tuberculosis-infected macrophages cell lysates were plated onto the surface of media able to support M. tuberculosis growth. Colony forming unit assays were counted to assess bacterial death or inhibition.
The growth index assay cannot always clearly distinguish between bacterial survival (without multiplication) and bacterial death. Therefore, colony forming unit assays were also used to assess the bactericidal activity of gallium-containing compounds in these experiments. Lysed monolayers were plated in Middlebrook 7H11 plates and colonies forming on the plates were counted after 14 days. […] In fact, this experiment provided the most graphic illustration of the influence of gallium nitrate on bacterial killing. That is, control-infected monolayers were lysed as a result of bacterial multiplication so that macrophages could no longer be visualized by microscopy. […] Importantly, the results in the colony-forming unit assay resemble the results obtained with the radiometric BACTEC assay.

[3] = infused in vivo; cited from earlier work
[4] = system: M. tuberculosis; experiment: Regrowth of M. tuberculosis in BACTEC system after gallium nitrate treatment (kill versus stasis); format: cell-based
Procedure: as §1
In Examples 2 and 3, gallium nitrate inhibited growth of M. tuberculosis. To determine whether the mycobacteria strains were killed by gallium nitrate or whether various concentrations of gallium nitrate were bacteriostatic, samples from the assay were tested in the BACTEC system. […] The bacteria, if present, was resuspended in 7H9 broth without gallium nitrate and incubated in the BACTEC system under conditions known in the art to promote bacterial growth.

[5] = system: M. tuberculosis strain H37Ra; experiment: Radiometric BACTEC growth index assay of M. tuberculosis in broth culture, gallium nitrate; format: cell-based; conditions: BACTEC 12B
Procedure: FIG. 1 provides histograms that illustrate the inhibitory effect of gallium nitrate on M. tuberculosis in broth culture. […] FIG. 1B illustrates the results of experiments to inhibit M. tuberculosis strain H37Ra in broth culture over the range of 0 to 1040 μM concentrations gallium nitrate.
Example 1 details methods for performing the growth index assays of this invention to detect the growth of pathogenic organisms including M. tuberculosis in suspension culture. There are a number of suspension culture methods known in the art. As an example of a suspension assay, M. tuberculosis growth and gallium nitrate inhibition were quantitated using the radiometric BACTEC 460TB system (Becton Dickinson Diagnostic Instrument Systems, Sparks, Md.). […] While this and other examples are directed to the inhibition of Mycobacteria, those skilled in the art will recognize that the assays are readily adaptable to the quantitation of other intracellular bacterial pathogens capable of infecting phagocytic cells. Growth inhibition of parasites or fungi can also be readily assessed by introducing the gallium-containing compounds into cultures of the organisms under standard growth conditions.
Lyophilized M. tuberculosis Erdman strain (ATCC #35801) and H37Ra (ATCC #25177) were reconstituted in pyogen-free water (Sigma, St. Louis, Mo.), plated on 7H11 agar plates, incubated at 37° C. in 5% CO2, 95% air, and after 14 days of culture, harvested and frozen in 7H9 broth at -70° C. […] An aliquot of this suspension was diluted in formalin, counted and diluted to appropriate concentrations for use in experiments. […] The figures illustrate the recorded numbers from bottles on different days which correlate with growth index readings for the various concentrations of gallium nitrate at Day 6.
The BACTEC system (Becton Dickinson, Sparks, Md.) is an instrument to quantitate bacterial growth. […] During quantitation in the BACTEC instrument, the gas is aspirated from the vial and the ^14 CO2 radioactivity is determined on a scale from 0 to 999. […]

O=[N+]([O-])[O-].O=[N+]([O-])[O-].O=[N+]([O-])[O-].[Ga+3] [gallium nitrate]
concentration at which inhibition was observed ([1]; L. chagasi promastigotes): at least 500 μM
inhibition of promastigote growth ([1]; about 250 μM to about 2 mM, about 24 to about 120 hrs): significantly inhibited
colony-forming units from macrophage lysates, trend ([2]; between days 2 and 5 following gallium nitrate): continuous decrease in colony-forming units
killing of M. tuberculosis ([2]; colony forming unit assay, FIG. 5): M. tuberculosis were killed
colony-forming units relative to initial amount of bacteria in macrophages ([2]; day 5): only slightly below the initial amount of bacteria in macrophages
monolayer of treated infected macrophages ([2]; during assay, control-infected monolayers were lysed): maintained a very good monolayer
binding to serum transferrin on infusion [3]: most of the gallium binds rapidly to serum transferrin
killing of bacteria (growth index after 6 weeks) ([4]; growth index assessed after 6 weeks): the bacteria were killed
bacterial regrowth after gallium nitrate treatment ([4]; resuspended in 7H9 broth without gallium nitrate, BACTEC): bacteria did not grow
inhibition of growth [5]: markedly inhibits the growth of M. tuberculosis
concentration with marked inhibition of growth ([5]; radiometric): approximately 100 μM
concentration with statistically significant inhibition of growth ([5]; radiometric): 16.25 µM
